According to ChEMBL document CHEMBL3525916, “Investigation of figopitant and its metabolites in rat tissue by combining whole-body autoradiography with liquid extraction surface analysis mass spectrometry” (Drug Metab Dispos, 2012):

Tests used:
Details in all cases: in vivo
[1] = tested on: Liver; assay: Biodistribution in albino Wistar Hannover rat liver at 5 mg/kg, iv after 24 hrs by autoradiography analysis; type: ADME, organism-based; parameters: dose 5 mg/kg, route intravenous
[2] = tested on: Rattus norvegicus; assay: Biodistribution in albino Wistar Hannover rat adipose tissue at 5 mg/kg, iv after 24 hrs by autoradiography analysis; type: ADME, organism-based; parameters: dose 5 mg/kg, route intravenous
[3] = tested on: Rattus norvegicus; assay: Biodistribution in albino Wistar Hannover rat epididymis at 5 mg/kg, iv after 24 hrs by autoradiography analysis; type: ADME, organism-based; parameters: dose 5 mg/kg, route intravenous
[4] = tested on: Rattus norvegicus; assay: Biodistribution in albino Wistar Hannover rat adrenal cortex at 5 mg/kg, iv after 24 hrs by autoradiography analysis; type: ADME, organism-based; parameters: dose 5 mg/kg, route intravenous
[5] = tested on: Thymus; assay: Biodistribution in albino Wistar Hannover rat thymus at 5 mg/kg, iv after 24 hrs by autoradiography analysis; type: ADME, organism-based; parameters: dose 5 mg/kg, route intravenous
[6] = tested on: Plasma; assay: Biodistribution in albino Wistar Hannover rat plasma at 5 mg/kg, iv after 24 hrs by liquid scintillation counting; type: ADME, organism-based; parameters: dose 5 mg/kg, route intravenous
[7] = tested on: Brain; assay: Biodistribution in albino Wistar Hannover rat brain at 5 mg/kg, iv after 24 hrs by autoradiography analysis; type: ADME, organism-based; parameters: dose 5 mg/kg, route intravenous
[8] = tested on: Zone of skin; assay: Biodistribution in albino Wistar Hannover rat skin at 5 mg/kg, iv after 24 hrs by autoradiography analysis; type: ADME, organism-based; parameters: dose 5 mg/kg, route intravenous
[9] = Retention time in albino Wistar Hannover rat at 5 mg/kg, iv; type: ADME, organism-based; parameters: dose 5 mg/kg, route intravenous
[10] = tested on: Lung; assay: Drug uptake in albino Wistar Hannover rat lung at 5 mg/kg, iv by LESA-MS analysis; type: ADME, organism-based; parameters: dose 5 mg/kg, route intravenous
[11] = tested on: Spleen; assay: Drug uptake in albino Wistar Hannover rat spleen at 5 mg/kg, iv by LESA-MS analysis; type: ADME, organism-based; parameters: dose 5 mg/kg, route intravenous
[12] = tested on: Blood; assay: Biodistribution in albino Wistar Hannover rat whole blood at 5 mg/kg, iv after 4 hrs by liquid scintillation counting; type: ADME, organism-based; parameters: dose 5 mg/kg, route intravenous
[13] = tested on: Harderian gland; assay: Biodistribution in albino Wistar Hannover rat harderian gland at 5 mg/kg, iv after 4 hrs by autoradiography analysis; type: ADME, organism-based; parameters: dose 5 mg/kg, route intravenous
[14] = tested on: Rattus norvegicus; assay: Biodistribution in albino Wistar Hannover rat muscle cranial at 5 mg/kg, iv after 24 hrs by autoradiography analysis; type: ADME, organism-based, Muscle tissue; parameters: dose 5 mg/kg, route intravenous
[15] = tested on: Rattus norvegicus; assay: Biodistribution in albino Wistar Hannover rat tongue at 5 mg/kg, iv after 24 hrs by autoradiography analysis; type: ADME, organism-based; parameters: dose 5 mg/kg, route intravenous
[16] = tested on: Lung; assay: Half life in albino Wistar Hannover rat lung at 5 mg/kg, iv by autoradiography analysis; type: ADME, organism-based; parameters: dose 5 mg/kg, route intravenous
[17] = Half life in albino Wistar Hannover rat testis at 5 mg/kg, iv by autoradiography analysis; type: ADME, organism-based; parameters: dose 5 mg/kg, route intravenous
[18] = tested on: Blood; assay: Half life in albino Wistar Hannover rat whole blood at 5 mg/kg, iv by liquid scintillation counting; type: ADME, organism-based; parameters: dose 5 mg/kg, route intravenous
[19] = tested on: Plasma; assay: Half life in albino Wistar Hannover rat plasma at 5 mg/kg, iv by liquid scintillation counting; type: ADME, organism-based; parameters: dose 5 mg/kg, route intravenous
[20] = Drug uptake in albino Wistar Hannover rat harder's gland at 5 mg/kg, iv by LESA-MS analysis; type: ADME, organism-based, Harderian gland; parameters: dose 5 mg/kg, route intravenous
[21] = Drug uptake in albino Wistar Hannover rat epididymis at 5 mg/kg, iv by LESA-MS analysis; type: ADME, organism-based; parameters: dose 5 mg/kg, route intravenous
[22] = tested on: Muscle tissue; assay: Drug uptake in albino Wistar Hannover rat muscle at 5 mg/kg, iv by LESA-MS analysis; type: ADME, organism-based; parameters: dose 5 mg/kg, route intravenous
[23] = tested on: Brain; assay: Drug uptake in albino Wistar Hannover rat brain at 5 mg/kg, iv by LESA-MS analysis; type: ADME, organism-based; parameters: dose 5 mg/kg, route intravenous
[24] = Drug uptake in albino Wistar Hannover rat salivary gland at 5 mg/kg, iv by LESA-MS analysis; type: ADME, organism-based; parameters: dose 5 mg/kg, route intravenous
[25] = tested on: Rattus norvegicus; assay: Biodistribution in albino Wistar Hannover rat muscle cranial at 5 mg/kg, iv after 5 mins by autoradiography analysis; type: ADME, organism-based, Muscle tissue; parameters: dose 5 mg/kg, route intravenous
[26] = tested on: Rattus norvegicus; assay: Biodistribution in albino Wistar Hannover rat muscle caudal at 5 mg/kg, iv after 5 mins by autoradiography analysis; type: ADME, organism-based, Muscle tissue; parameters: dose 5 mg/kg, route intravenous
[27] = tested on: Rattus norvegicus; assay: Biodistribution in albino Wistar Hannover rat tongue at 5 mg/kg, iv after 5 mins by autoradiography analysis; type: ADME, organism-based; parameters: dose 5 mg/kg, route intravenous
[28] = tested on: Pancreas; assay: Biodistribution in albino Wistar Hannover rat pancreas at 5 mg/kg, iv after 5 mins by autoradiography analysis; type: ADME, organism-based; parameters: dose 5 mg/kg, route intravenous
[29] = tested on: Rattus norvegicus; assay: Biodistribution in albino Wistar Hannover rat adipose tissue at 5 mg/kg, iv after 5 mins by autoradiography analysis; type: ADME, organism-based; parameters: dose 5 mg/kg, route intravenous
[30] = tested on: Lung; assay: Biodistribution in albino Wistar Hannover rat lung at 5 mg/kg, iv after 5 mins by autoradiography analysis; type: ADME, organism-based; parameters: dose 5 mg/kg, route intravenous
[31] = tested on: Rattus norvegicus; assay: Biodistribution in albino Wistar Hannover rat myocardium at 5 mg/kg, iv after 5 mins by autoradiography analysis; type: ADME, organism-based; parameters: dose 5 mg/kg, route intravenous
[32] = tested on: Thymus; assay: Biodistribution in albino Wistar Hannover rat thymus at 5 mg/kg, iv after 5 mins by autoradiography analysis; type: ADME, organism-based; parameters: dose 5 mg/kg, route intravenous
[33] = tested on: Plasma; assay: Biodistribution in albino Wistar Hannover rat plasma at 5 mg/kg, iv after 5 mins by liquid scintillation counting; type: ADME, organism-based; parameters: dose 5 mg/kg, route intravenous
[34] = tested on: Brain; assay: Biodistribution in albino Wistar Hannover rat brain at 5 mg/kg, iv after 5 mins by autoradiography analysis; type: ADME, organism-based; parameters: dose 5 mg/kg, route intravenous
[35] = tested on: Harderian gland; assay: Biodistribution in albino Wistar Hannover rat harderian gland at 5 mg/kg, iv after 5 mins by autoradiography analysis; type: ADME, organism-based; parameters: dose 5 mg/kg, route intravenous
[36] = tested on: Zone of skin; assay: Biodistribution in albino Wistar Hannover rat skin at 5 mg/kg, iv after 5 mins by autoradiography analysis; type: ADME, organism-based; parameters: dose 5 mg/kg, route intravenous
[37] = tested on: Rattus norvegicus; assay: Biodistribution in albino Wistar Hannover rat salivary gland at 5 mg/kg, iv after 4 hrs by autoradiography analysis; type: ADME, organism-based; parameters: dose 5 mg/kg, route intravenous
[38] = tested on: Liver; assay: Biodistribution in albino Wistar Hannover rat liver at 5 mg/kg, iv after 4 hrs by autoradiography analysis; type: ADME, organism-based; parameters: dose 5 mg/kg, route intravenous
[39] = tested on: Pancreas; assay: Biodistribution in albino Wistar Hannover rat pancreas at 5 mg/kg, iv after 4 hrs by autoradiography analysis; type: ADME, organism-based; parameters: dose 5 mg/kg, route intravenous
[40] = tested on: Lung; assay: Biodistribution in albino Wistar Hannover rat lung at 5 mg/kg, iv after 4 hrs by autoradiography analysis; type: ADME, organism-based; parameters: dose 5 mg/kg, route intravenous
[41] = tested on: Rattus norvegicus; assay: Biodistribution in albino Wistar Hannover rat adrenal cortex at 5 mg/kg, iv after 4 hrs by autoradiography analysis; type: ADME, organism-based; parameters: dose 5 mg/kg, route intravenous
[42] = tested on: Rattus norvegicus; assay: Biodistribution in albino Wistar Hannover rat myocardium at 5 mg/kg, iv after 4 hrs by autoradiography analysis; type: ADME, organism-based; parameters: dose 5 mg/kg, route intravenous
[43] = tested on: Liver; assay: Drug uptake in albino Wistar Hannover rat liver at 5 mg/kg, iv

Drug uptake [1]: 4793 ngequiv/g | Drug uptake [2]: 113 ngequiv/g | Drug uptake [3]: 1043 ngequiv/g | Drug uptake [4]: 3447 ngequiv/g | Drug uptake [5]: 1746 ngequiv/g | Drug uptake [6]: 80 ngequiv/g | Drug uptake [7]: 50 ngequiv/g | Drug uptake [8]: 606 ngequiv/g | Retention time [9]: 0.358 h | Drug uptake [10]: 38.9% | Drug uptake [11]: 30.9% | Drug uptake [12]: 361 ngequiv/g | Drug uptake [13]: 13941 ngequiv/g | Drug uptake [14]: 671 ngequiv/g | Drug uptake [15]: 891 ngequiv/g | t1/2 [16]: 20.5 h | t1/2 [17]: 95.6 h | t1/2 [18]: 38.6 h | t1/2 [19]: 21.9 h | Drug uptake [20]: 79.9% | Drug uptake [21]: 62.1% | Drug uptake [22]: 36.5% | Drug uptake [23]: 75.6% | Drug uptake [24]: 42.5% | Drug uptake [25]: 8437 ngequiv/g | Drug uptake [26]: 6936 ngequiv/g | Drug uptake [27]: 12885 ngequiv/g | Drug uptake [28]: 17869 ngequiv/g | Drug uptake [29]: 467 ngequiv/g | Drug uptake [30]: 24769 ngequiv/g | Drug uptake [31]: 13504 ngequiv/g | Drug uptake [32]: 3243 ngequiv/g | Drug uptake [33]: 483 ngequiv/g | Drug uptake [34]: 1912 ngequiv/g | Drug uptake [35]: 4132 ngequiv/g | Drug uptake [36]: 1743 ngequiv/g | Drug uptake [37]: 8238 ngequiv/g | Drug uptake [38]: 13851 ngequiv/g | Drug uptake [39]: 12820 ngequiv/g | Drug uptake [40]: 10036 ngequiv/g | Drug uptake [41]: 11078 ngequiv/g | Drug uptake [42]: 4240 ngequiv/g | Drug uptake [43]: 12.9%
SMILES: CN(CCc1cc(C(F)(F)F)cc(C(F)(F)F)c1)C(=O)[C@H](c1ccccc1)N1CCN(CC2CC2)CC1.Cl.O
